From PMC9188586, “Design, synthesis and evaluation of novel tetrahydropyridothienopyrimidin-ureas as cytotoxic and anti-angiogenic agents” (Scientific Reports, 2022)
Several values for one entry are separate records, joined by “and”; a condition that tells them apart may be missing. Equal values may be shown once.

What was measured:
MCF-7 (breast cancer) = experiment: MTT antiproliferative assay, MCF-7; assay type: cell-based; conditions: Homo sapiens, MCF7, 48 h incubation
Protocol: (§1) Two series of new tetrahydropyridothienopyrimidines were evaluated for their cytotoxicity against a panel of cell lines, including MCF-7 (breast cancer), SW480 (colon cancer), PC-3 (prostate cancer), HEPG-2 (liver cancer) and HUVEC (human umbilical vein endothelial cell) using 3-(4,5-dimethyl- thiazol-2-yl)-2,5-diphenyltetrazolium bromide (MTT) assay. Sorafenib was used as a positive control. The cytotoxicity is expressed as the concentration that inhibits 50% of cell viability (IC50). […] The preliminary SAR is evaluated on the basis of cytotoxicity results of phenyl derivatives (11a–k) and pyridine derivatives (11l–11y).The mesomeric effect didn’t improve the cytotoxicity of compound 11d in the first series.
(§2) Cytotoxicity of the compounds was measured by detecting the ability of cells in transforming MTT into a purple formazan dye. The different cell lines were provided by the National Cell Bank of Iran (Pastor Institute, Tehran, Iran). The required materials and reagents were purchased from Sigma. After the cell culture in RPMI-1640 medium and DMEM containing 10% FBS (Gibco, Milano, Italy), the suspension of MCF-7 (7000) and other cells (5000) were poured into 96 well plates and incubated in a humidified incubator containing 5% CO2 at 37 °C for 24 h. Subsequently, a solution of the compounds in DMSO was added to these plates and incubated for 48 h. After incubation, the solution of 5% 3-(4,5-Dimethyl-2-thiazolyl)-2,5-diphenyl-2H-tetrazolium bromide (MTT) was added to all the wells and incubation was continued for another 4 h. The record of color intensity of the formazan solution was at 570 nm by Bio-Rad microplate reader (Model 680) which reflects the cell growth condition.

PC-3 (prostate cancer) = experiment: MTT antiproliferative assay, PC-3; assay type: cell-based; conditions: 48 h incubation
Protocol: as §1, §2

SW480 (colon cancer) = experiment: MTT antiproliferative assay, SW480; assay type: cell-based; conditions: Homo sapiens, SW480, 48 h incubation
Protocol: as §1, §2

caspase-3 = experiment: Caspase-3 level by ELISA in MCF-7 cells; assay type: cell-based, human; conditions: 24 h; for Casp3 conc.: 11n at 2.67 μM, Sorafenib at 7.06 μM
Protocol: The activity of caspase (cysteinyl-aspartate-specific proteases) as intracellular cell death enzymes has been characterized. So, the […] the process[28]–[31].
Caspase-3 activity was measured using a caspase-3 (Active) (human) ELISA kit, MBS450774, according to the manufacturer’s instructions.

[1] = test system: HUVEC (human umbilical vein endothelial cell); experiment: MTT antiproliferative assay, HUVEC; assay type: cell-based; conditions: Homo sapiens, HUVEC; MTT assay, 48 h incubation
Protocol: as §1, §2

HEPG-2 (liver cancer) = experiment: MTT antiproliferative assay, HEPG-2; assay type: cell-based; conditions: Homo sapiens, HepG2, 48 h incubation
Protocol: as §1, §2

MCF-7 cells [2] = experiment: Cell cycle analysis by flow cytometry, MCF-7; assay type: cell-based; conditions: MCF-7, IC50 concentration, 48 h
Protocol: (§3) We can conclude that compound 11n induces cellular apoptosis in […]. An increase in sub-G1 area is an indicative of apoptosis.
(§4) After trypsinization and rinsing with PBS, the cells were centrifuged at 1200 rpm for 5 min and then incubated with PBS and fixed in ice-cooled 70% ethanol. After washing with PBS, the cells were resuspended in RNase A (0.1 mg/mL) and incubated for 5 h. Then, staining with PI ([…]) and incubation for 15 min were performed. By using Novocyte flow cytometer (ACEA Biosciences) the analysis was done and the calculation of cell cycle distributions was done by NovoExpress 1.1.0 software.

[3] = test system: chick chorioallantoic membrane (CAM); experiment: Chick chorioallantoic membrane (CAM) anti-angiogenic assay; assay type: in vivo; conditions: IC50 concentration, compared with Sorafenib as positive control
Protocol: The hydrogen bonding between NH groups of urea and target proteins were known to give rise to better inhibition of an important growth factor receptor (VEGFR-2) involved in the process of angiogenesis. Thus, the chick chorioallantoic membrane (CAM) assay was utilized as an in-vivo technique to evaluate the anti-vascular effects. Therefore, the anti-angiogenic strength of compounds were investigated by a cheap and simple CAM assay (Figs. 4, 5)[32],[33]. The anti-angiogenic strength was measured and compared with DMSO (control) and Sorafenib as a positive control.
All eggs were supplied from (Poultry Breeding Farm, Tehran, Iran). Since the allantois of the chick embryo appears at about 3.5 days of incubation, the corresponding eggs were incubated (37.5 °C, relative humidity: 55–65%). To decrease the risk of infection, the particular regions of the egg, e.g., the front side of the embryo were cleaned and sterilized with 70% EtOH. On the 6th incubation day, a false air sac was created directly over the CAM, permitting its detachment from the shell membrane. The procedure was continued through a square incision over the CAM. The prepared window in a square form (1 × 1 cm), was covered by a flexible film and then transported to the incubator. On the 8th incubation day, the particular paper discs (Whatman) were coated with target agents and placed in the central area of the corresponding window. The surface of CAM was visually evaluated on the 12th incubation day using the stereomicroscope. We decided to use the number and the length of capillary blood vessels as the index of anti-angiogenic activity. Consequently, the prepared images were analyzed by the advantageous software, Image J[22],[23].

HUVEC cells [4] = experiment: Cell cycle analysis by flow cytometry, HUVEC; assay type: cell-based, human; conditions: IC50 concentration, 48 h
Protocol: as §3, §4

MRC5 normal cell line = experiment: MTT cytotoxicity against normal cell line MRC5; assay type: cell-based; conditions: for IC50: Homo sapiens, MRC5, MTT assay, normal cell line; for SI (Selectivity Index): IC50 value normal cell (MRC5)/IC50 value cancer cell (MCF-7)
Protocol: as §2

VEGFR-2 = target: T1, VEGFR-2 (Homo sapiens, UniProt P35968); experiment: Western blot of VEGFR-2 phosphorylation in HUVECs; assay type: cell-based; conditions: HUVEC, IC50 concentration, after 48 and 72 h, compared to positive control
T1 construct: endogenous in cells; host or cells: HUVEC
Protocol: It was is observed that, after 48 and 72 h, the phosphorylation of VEGFR-2 decreases compared to the positive control (Fig. 7).
After thawing in […] lysis buffer and centrifuge at 1200 rpm, the loading and electrophoresis of proteins on 12% SDSPAGE was performed. Then, they transferred for 1.5 h at 100 V into a nitrocellulose membrane ([…]) and blocked with 5% blocking buffer. After incubation of antibodies at 4 ◦C for 12 h, the detection of immunoblots were performed using the enhanced chemiluminescence (ECL) method.

HUVEC cells [5] = experiment: Annexin V/PI flow cytometry apoptosis analysis, HUVEC; assay type: cell-based, human; conditions: IC50 concentration; for Early apoptotic cells (Q3) / Late apoptotic cells (Q2): 48 h, one replicate
Protocol: (§5) The experiment was conducted by flow cytometry analysis of […] cells with propidium iodide (PI) and annexin V-fluorescein isothiocyanate (annexine V-FITC).
(§6) Then, cells were trypsinized, rinsed with phosphate-bufferede buffered saline (PBS) and then centrifuged at 1200 rpm for 3 min. After this, the binding buffer (500 μL) was added to the resulting cells, followed by addition and mixing with […] and PI (5 μL). After this, the samples were incubated in dark for 10 to 15 min at room temperature, and then the cellular analysis was measured by flow cytometer (FACS Calibur Bectone-Dickinson).

MCF-7 cells [6] = experiment: Annexin V/PI flow cytometry apoptosis analysis, MCF-7; assay type: cell-based; conditions: MCF-7, IC50 concentration
Protocol: as §5, §6

HUVEC and MCF-7 cells = experiment: Cell cycle analysis by flow cytometry, cell line not given; assay type: cell-based; conditions: cell line not stated, IC50 concentration, 48 h
Protocol: An increase in sub-G1 area is an indicative of apoptosis.
as §4

T1 sequence (P35968 20-1356): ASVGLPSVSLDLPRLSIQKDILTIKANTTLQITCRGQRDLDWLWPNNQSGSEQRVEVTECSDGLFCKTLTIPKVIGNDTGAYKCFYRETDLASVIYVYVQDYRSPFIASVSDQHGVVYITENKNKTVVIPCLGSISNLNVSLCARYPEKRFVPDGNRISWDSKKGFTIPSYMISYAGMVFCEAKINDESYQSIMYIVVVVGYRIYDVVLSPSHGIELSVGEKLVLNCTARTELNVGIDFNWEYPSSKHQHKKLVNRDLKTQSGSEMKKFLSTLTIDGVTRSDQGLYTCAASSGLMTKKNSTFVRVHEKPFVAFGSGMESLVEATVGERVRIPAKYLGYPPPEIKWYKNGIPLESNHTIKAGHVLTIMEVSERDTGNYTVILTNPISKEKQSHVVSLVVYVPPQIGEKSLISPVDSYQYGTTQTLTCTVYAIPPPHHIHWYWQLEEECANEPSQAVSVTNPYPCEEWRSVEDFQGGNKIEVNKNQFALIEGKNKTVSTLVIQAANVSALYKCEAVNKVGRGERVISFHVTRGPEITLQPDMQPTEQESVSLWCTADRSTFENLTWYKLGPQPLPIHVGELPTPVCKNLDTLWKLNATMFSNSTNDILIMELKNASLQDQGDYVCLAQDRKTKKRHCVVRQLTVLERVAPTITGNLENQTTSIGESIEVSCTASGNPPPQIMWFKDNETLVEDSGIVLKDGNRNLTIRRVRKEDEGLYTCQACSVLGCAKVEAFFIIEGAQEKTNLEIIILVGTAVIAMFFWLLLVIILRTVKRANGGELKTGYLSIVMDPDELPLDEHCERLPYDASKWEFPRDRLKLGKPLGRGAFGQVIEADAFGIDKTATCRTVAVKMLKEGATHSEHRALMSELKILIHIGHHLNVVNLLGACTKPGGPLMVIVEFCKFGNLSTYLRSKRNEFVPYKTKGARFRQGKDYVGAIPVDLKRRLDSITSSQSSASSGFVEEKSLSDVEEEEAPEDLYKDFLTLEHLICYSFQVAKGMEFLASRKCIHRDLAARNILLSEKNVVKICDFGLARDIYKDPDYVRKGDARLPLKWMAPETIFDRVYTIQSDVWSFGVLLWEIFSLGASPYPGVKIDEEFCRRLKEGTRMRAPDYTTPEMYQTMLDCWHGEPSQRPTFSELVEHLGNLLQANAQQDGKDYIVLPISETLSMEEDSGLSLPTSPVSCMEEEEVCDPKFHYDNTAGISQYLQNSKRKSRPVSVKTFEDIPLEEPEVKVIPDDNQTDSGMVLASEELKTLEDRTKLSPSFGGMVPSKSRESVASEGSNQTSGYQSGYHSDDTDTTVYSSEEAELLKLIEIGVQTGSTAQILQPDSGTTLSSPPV

Structure (SMILES) | IC50 (MCF-7 (breast cancer)) | IC50 (PC-3 (prostate cancer)) | IC50 (SW480 (colon cancer)) | IC50 [1] | IC50 (HEPG-2 (liver cancer)) | Inhibitory effect on growing CAM (in words) [3] | IC50 (MRC5 normal cell line) | SI (Selectivity Index) (MRC5 normal cell line) | Early apoptotic cells (Q3) (HUVEC cells [5]) | Late apoptotic cells (Q2) (HUVEC cells [5]) | melting point | further results
CNC(=O)c1cc(Oc2ccc(NC(=O)Nc3ccc(Cl)c(C(F)(F)F)c3)cc2)ccn1 [Sorafenib, reference compound] | 7.06 ± 0.17 µM | 5.45 ± 0.11 µM | 19.8 ± 0.12 µM | 2.81 ± 0.71 µM | 29.6 ± 0.31 µM |  |  |  |  |  |  | Casp3 conc. (caspase-3): 4.54 ± 0.25 ng/mL
Cc1ccc(NC(=O)Nc2nnc(Sc3ncnc4sc5c(c34)CCN(Cc3ccncc3)C5)s2)cc1 [Compound 11n, 1-(5-((7-(pyridin-4-ylmethyl)-5,6,7,8-tetrahydropyrido[4',3':4,5]thieno[2,3-d]pyrimidin-4-yl)thio)-1,3,4-thiadiazol-2-yl)-3-(p-tolyl)urea] | 2.67 ± 0.21 µM | 11.35 ± 0.09 µM | 6.84 ± 0.05 µM | 2.09 ± 0.08 µM | 7.2 ± 0.03 µM | slightly weaker inhibitory effects | 38.1 ± 0.81 µM | 14 and 14.2 | 16.5% | 79.8% |  | Percentage of cells in G0 phase (MCF-7 cells [2]): 54.3%; Percentage of cells in G0 phase (HUVEC cells [4]): 65.5%; Phosphorylation of VEGFR-2 (in words) (VEGFR-2): decreases; Casp3 conc. (caspase-3): 3.63 ± 0.52 ng/mL; FLD (fold change of caspase-3 level) (caspase-3; control = 1): 5.2 fold; Early apoptotic cells (Q3) (MCF-7 cells [6]; 48 h, one replicate): 22.8%; Late apoptotic cells (Q2) (MCF-7 cells [6]; 48 h, one replicate): 58.2%
Cc1cccc(NC(=O)Nc2nnc(Sc3ncnc4sc5c(c34)CCN(Cc3ccncc3)C5)s2)c1 [Compound 11m, 1-(5-((7-(pyridin-4-ylmethyl)-5,6,7,8-tetrahydropyrido[4',3':4,5]thieno[2,3-d]pyrimidin-4-yl)thio)-1,3,4-thiadiazol-2-yl)-3-(m-tolyl)urea] | 3.35 ± 0.01 µM | 11.79 ± 0.11 µM | 61.23 ± 0.44 µM | 1.15 ± 0.03 µM | 27.76 ± 0.13 µM | slightly weaker inhibitory effects | 33.2 ± 0.44 µM |  | 10.1% | 52.5% |  | Percentage of cell population in the S phase (MCF-7 cells [2]): 32.9%
Cc1ccccc1NC(=O)Nc1nnc(Sc2ncnc3sc4c(c23)CCN(Cc2ccncc2)C4)s1 [Compound 11l, 1-(5-((7-(pyridin-4-ylmethyl)-5,6,7,8-tetrahydropyrido[4',3':4,5]thieno[2,3-d]pyrimidin-4-yl)thio)-1,3,4-thiadiazol-2-yl)-3-(o-tolyl)urea] | 2.8 ± 0.03 µM | 6.11 ± 0.08 µM | 15 ± 0.38 µM | 2.53 ± 0.05 µM | 9.94 ± 0.07 µM |  | 24.8 ± 0.36 µM |  | 5.51% | 89.0% |  | Percentage of cell population in the S phase (MCF-7 cells [2]): 49.8%; Percentage of cells in G0 phase (HUVEC and MCF-7 cells): 97.6%
Cc1cccc(NC(=O)Nc2nnc(Sc3ncnc4sc5c(c34)CCN(Cc3ccccc3)C5)s2)c1 [Compound 11b, 1-(5-((7-benzyl-5,6,7,8-tetrahydropyrido[4',3':4,5]thieno[2,3-d]pyrimidin-4-yl)thio)-1,3,4-thiadiazol-2-yl)-3-(m-tolyl)urea] | 8.22 ± 0.09 µM | 46.8 ± 1.49 µM | 67.7 ± 2.53 µM | 18.89 ± 0.09 µM | 48.1 ± 0.22 µM |  | 32.1 ± 0.92 µM | 3.9 |  |  | 138 to 139 °C | Apoptosis induction (in words) (HUVEC cells [5]): unable to induce apoptosis; Apoptosis induction (in words) (MCF-7 cells [6]): unable to induce apoptosis
O=C(Nc1ccc(Cl)c(Cl)c1)Nc1nnc(Sc2ncnc3sc4c(c23)CCN(Cc2ccccc2)C4)s1 [Compound 11h, 1-(5-((7-benzyl-5,6,7,8-tetrahydropyrido[4',3':4,5]thieno[2,3-d]pyrimidin-4-yl)thio)-1,3,4-thiadiazol-2-yl)-3-(3,4-dichlorophenyl)urea] | 8.52 ± 0.02 µM | 70.2 ± 1.92 µM | 64.2 ± 2.2 µM | 7.44 ± 0.06 µM | 53.71 ± 0.5 µM | slightly weaker inhibitory effects | 41.2 ± 0.45 µM | 4.8 |  |  | 190 to 192 °C | Apoptosis induction (in words) (HUVEC cells [5]): unable to induce apoptosis; Apoptosis induction (in words) (MCF-7 cells [6]): unable to induce apoptosis
COc1ccc(NC(=O)Nc2nnc(Sc3ncnc4sc5c(c34)CCN(Cc3ccccc3)C5)s2)cc1 [Compound 11d, 1-(5-((7-benzyl-5,6,7,8-tetrahydropyrido[4',3':4,5]thieno[2,3-d]pyrimidin-4-yl)thio)-1,3,4-thiadiazol-2-yl)-3-(4-methoxyphenyl)urea] | 51.92 ± 0.47 µM | 44 ± 1.52 µM | 45.1 ± 1.7 µM | 44.15 ± 0.22 µM | 43.92 ± 0.16 µM |  |  |  |  |  | 280 to 282 °C | 
O=C(Nc1ccc(F)cc1)Nc1nnc(Sc2ncnc3sc4c(c23)CCN(Cc2ccccc2)C4)s1 [Compound 11f, 1-(5-((7-benzyl-5,6,7,8-tetrahydropyrido[4',3':4,5]thieno[2,3-d]pyrimidin-4-yl)thio)-1,3,4-thiadiazol-2-yl)-3-(4-fluorophenyl)urea] | 45.04 ± 0.41 µM | 41.4 ± 0.46 µM | 61.3 ± 2.02 µM | 47.98 ± 0.27 µM | 30.7 ± 0.44 µM |  |  |  |  |  | 166 to 168 °C | 
